# Experimental data from patent publication US11919899B2, “Substituted 1-(3,3-difluoropiperidin-4-yl)-imidazo[4,5-c] quinolin-2-one compounds with blood-brain barrier penetrable capability” (priority 2020, dated 2024).
# Tests used:
# [1] = Blood-brain barrier penetration (brain tissue to plasma concentration ratio); type: in vivo; conditions: ratio of concentration in brain tissue to plasma; rats or mice, four hours after dosing
# Procedure: Four hours after dosing, rats or mice were sacrificed, blood and brain tissue were collected and the concentration of the test compound was analyzed. Brain permeation is defined as the ratio of the concentration of the compound in the brain tissue to the concentration in the plasma. P-glycoprotein and BCRP (Breast Cancer Resistance Protein) are the blood-brain barrier efflux proteins, the P-glycoprotein substrate (Efflux ratio>1.5) and/or BCRP substrate (Efflux ratio>1.5) is out of the brain.
# P-glycoprotein = P-glycoprotein (Homo sapiens, UniProt P08183); experiment: P-glycoprotein efflux substrate; type: in vitro ADME; conditions: not told
# BCRP = molecular target: T1, BCRP (Homo sapiens, UniProt Q9UNQ0); experiment: BCRP efflux substrate; type: in vitro ADME; conditions: not told
# T1 sequence (Q9UNQ0 1-655): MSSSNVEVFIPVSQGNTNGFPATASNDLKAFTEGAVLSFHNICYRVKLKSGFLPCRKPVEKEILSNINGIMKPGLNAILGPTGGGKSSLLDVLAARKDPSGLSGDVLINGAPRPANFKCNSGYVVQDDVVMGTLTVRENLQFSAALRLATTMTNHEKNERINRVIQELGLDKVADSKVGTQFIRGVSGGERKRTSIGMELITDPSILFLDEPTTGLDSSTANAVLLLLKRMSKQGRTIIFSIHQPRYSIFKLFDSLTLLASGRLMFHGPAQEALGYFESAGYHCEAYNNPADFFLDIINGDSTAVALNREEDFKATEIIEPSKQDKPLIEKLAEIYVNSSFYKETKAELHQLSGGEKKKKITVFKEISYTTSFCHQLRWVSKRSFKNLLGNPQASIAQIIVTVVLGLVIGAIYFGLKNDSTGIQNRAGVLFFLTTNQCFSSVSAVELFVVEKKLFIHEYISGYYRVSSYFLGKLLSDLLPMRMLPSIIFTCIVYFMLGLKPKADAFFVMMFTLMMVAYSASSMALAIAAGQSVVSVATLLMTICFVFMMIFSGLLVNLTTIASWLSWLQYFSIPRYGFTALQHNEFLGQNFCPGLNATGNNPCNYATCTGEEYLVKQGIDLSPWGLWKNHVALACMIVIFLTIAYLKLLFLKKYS
# Chain of P-glycoprotein (P08183 whole entry): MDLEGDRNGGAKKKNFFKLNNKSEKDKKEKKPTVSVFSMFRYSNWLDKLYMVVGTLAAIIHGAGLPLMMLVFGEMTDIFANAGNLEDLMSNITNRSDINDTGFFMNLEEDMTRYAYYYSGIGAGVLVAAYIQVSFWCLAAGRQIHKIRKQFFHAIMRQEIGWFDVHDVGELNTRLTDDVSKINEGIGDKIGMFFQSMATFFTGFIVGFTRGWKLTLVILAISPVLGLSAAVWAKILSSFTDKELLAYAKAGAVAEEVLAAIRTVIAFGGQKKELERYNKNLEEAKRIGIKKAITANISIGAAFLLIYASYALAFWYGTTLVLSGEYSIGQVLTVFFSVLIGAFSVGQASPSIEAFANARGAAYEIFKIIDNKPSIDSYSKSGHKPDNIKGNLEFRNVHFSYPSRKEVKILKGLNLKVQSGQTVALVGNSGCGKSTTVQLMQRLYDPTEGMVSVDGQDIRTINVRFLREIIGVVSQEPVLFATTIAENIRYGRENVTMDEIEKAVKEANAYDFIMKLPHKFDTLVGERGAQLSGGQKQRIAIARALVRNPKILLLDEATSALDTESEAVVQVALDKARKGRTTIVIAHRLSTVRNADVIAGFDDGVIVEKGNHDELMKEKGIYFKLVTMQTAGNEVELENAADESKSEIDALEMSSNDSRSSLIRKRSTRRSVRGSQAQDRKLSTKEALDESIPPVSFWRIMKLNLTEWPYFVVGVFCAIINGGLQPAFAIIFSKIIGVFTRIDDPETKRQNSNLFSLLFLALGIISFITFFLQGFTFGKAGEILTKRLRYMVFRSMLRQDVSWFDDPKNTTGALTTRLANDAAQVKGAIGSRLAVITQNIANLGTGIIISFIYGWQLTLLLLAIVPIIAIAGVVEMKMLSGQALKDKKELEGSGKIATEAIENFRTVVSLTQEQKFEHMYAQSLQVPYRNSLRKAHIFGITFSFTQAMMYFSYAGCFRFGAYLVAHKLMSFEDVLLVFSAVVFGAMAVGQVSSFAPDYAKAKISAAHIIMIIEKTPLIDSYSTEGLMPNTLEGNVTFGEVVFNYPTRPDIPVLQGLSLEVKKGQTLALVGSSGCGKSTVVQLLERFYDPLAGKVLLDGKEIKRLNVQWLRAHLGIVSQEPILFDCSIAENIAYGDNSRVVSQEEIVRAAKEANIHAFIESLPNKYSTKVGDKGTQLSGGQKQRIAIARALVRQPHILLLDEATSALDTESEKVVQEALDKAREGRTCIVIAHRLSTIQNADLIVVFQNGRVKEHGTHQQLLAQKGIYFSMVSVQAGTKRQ
Structure (SMILES),Kp at 4 h [1],efflux ratio (P-glycoprotein),efflux ratio (BCRP)
"CCOc1ccc(-c2ccc3ncc4c(c3c2)n(C2CCN(C)CC2(F)F)c(=O)n4C)cn1 (racemic) [Compound 4, (R/S)-1-(3,3-difluoro-1-methylpiperidin-4-yl)-8-(6-ethoxypyridin-3-yl)-3-methyl-1,3-dihydro-2H-imidazo[4,5-c]quinolin-2-one]",> 0.3,< 1,< 1
"COc1ccc(-c2cc3c(cc2F)ncc2c3n([C@H]3CCN(C)CC3(F)F)c(=O)n2C)cn1 [Compound 32, (S)-1-(3,3-difluoro-1-methylpiperidin-4-yl)-7-fluoro-8-(6-methoxypyridin-3-yl)-3-methyl-1,3-dihydro-2H-imidazo[4,5-c]quinolin-2-one]",> 0.3,< 1,< 1
CN1CC[C@H](n2c(=O)n(C)c3cnc4ccc(-c5ccc(N6C[C@@H]7[C@H]6CCN7C)nc5)cc4c32)C(F)(F)C1 [Compound 40],> 0.3,< 1,< 1
CN1CC[C@@H](n2c(=O)n(C)c3cnc4ccc(-c5ccc(N6C[C@@H]7[C@H]6CCN7C)nc5)cc4c32)C(F)(F)C1 [Compound 26],> 0.3,< 1,< 1
"COc1ccc(-c2ccc3ncc4c(c3c2)n([C@H]2CCN(C(C)C)CC2(F)F)c(=O)n4C)cn1 [Compound 30, (S)-1-(3,3-difluoro-1-isopropylpiperidin-4-yl)-8-(6-methoxypyridin-3-yl)-3-methyl-1,3-dihydro-2H-imidazo[4,5-c]quinolin-2-one]",> 0.3,< 1,< 1
"COc1ccc(-c2cc3c(cc2F)ncc2c3n(C3CCN(C)CC3(F)F)c(=O)n2C)cn1 (racemic) [Compound 5, (R/S)-1-(3,3-difluoro-1-methylpiperidin-4-yl)-7-fluoro-8-(6-methoxypyridin-3-yl)-3-methyl-1,3-dihydro-2H-imidazo[4,5-c]quinolin-2-one]",> 0.3,< 1,< 1
"CN1CC[C@H](n2c(=O)n(C)c3cnc4ccc(-c5ccc(OC6CC6)nc5)cc4c32)C(F)(F)C1 [Compound 37, (S)-8-(6-cyclopropoxypyridin-3-yl)-1-(3,3-difluoro-1-methylpiperidin-4-yl)-3-methyl-1,3-dihydro-2H-imidazo[4,5-c]quinolin-2-one]",> 0.3,< 1,< 1
"COc1ccc(-c2ccc3ncc4c(c3c2)n(C2CCN(C(C)C)CC2(F)F)c(=O)n4C)cn1 (racemic) [Compound 3, (R/S)-1-(3,3-difluoro-1-isopropylpiperidin-4-yl)-8-(6-methoxypyridin-3-yl)-3-methyl-1,3-dihydro-2H-imidazo[4,5-c]quinolin-2-one]",> 0.3,< 1,< 1
"CCN1CC[C@H](n2c(=O)n(C)c3cnc4ccc(-c5ccc(OC)nc5)cc4c32)C(F)(F)C1 [Compound 29, (S)-1-(1-ethyl-3,3-difluoropiperidin-4-yl)-8-(6-methoxypyridin-3-yl)-3-methyl-1,3-dihydro-2H-imidazo[4,5-c]quinolin-2-one]",> 0.3,< 1,< 1
"CN1CCC(n2c(=O)n(C)c3cnc4ccc(-c5ccc(OC6CC6)nc5)cc4c32)C(F)(F)C1 (racemic) [Compound 10, (R/S)-8-(6-cyclopropoxypyridin-3-yl)-1-(3,3-difluoro-1-methylpiperidin-4-yl)-3-methyl-1,3-dihydro-2H-imidazo[4,5-c]quinolin-2-one]",> 0.3,< 1,< 1
"COc1ccc(-c2cc3c(cc2F)ncc2c3n([C@@H]3CCN(C)CC3(F)F)c(=O)n2C)cn1 [Compound 18, (R)-1-(3,3-difluoro-1-methylpiperidin-4-yl)-7-fluoro-8-(6-methoxypyridin-3-yl)-3-methyl-1,3-dihydro-2H-imidazo[4,5-c]quinolin-2-one]",> 0.3,< 1,< 1
"CN1CC[C@@H](n2c(=O)n(C)c3cnc4ccc(-c5ccc(OC6CC6)nc5)cc4c32)C(F)(F)C1 [Compound 23, (R)-8-(6-cyclopropoxypyridin-3-yl)-1-(3,3-difluoro-1-methylpiperidin-4-yl)-3-methyl-1,3-dihydro-2H-imidazo[4,5-c]quinolin-2-one]",> 0.3,< 1,< 1
"CC(C)Oc1ccc(-c2ccc3ncc4c(c3c2)n(C2CCN(C)CC2(F)F)c(=O)n4C)cn1 (racemic) [Compound 7, (R/S)-1-(3,3-difluoro-1-methylpiperidin-4-yl)-8-(6-isopropoxypyridin-3-yl)-3-methyl-1,3-dihydro-2H-imidazo[4,5-c]quinolin-2-one]",> 0.3,< 1,< 1
"CC(C)Oc1ccc(-c2ccc3ncc4c(c3c2)n([C@H]2CCN(C)CC2(F)F)c(=O)n4C)cn1 [Compound 34, (S)-1-(3,3-difluoro-1-methylpiperidin-4-yl)-8-(6-isopropoxypyridin-3-yl)-3-methyl-1,3-dihydro-2H-imidazo[4,5-c]quinolin-2-one]",> 0.3,< 1,< 1
"CC(C)Oc1ccc(-c2ccc3ncc4c(c3c2)n([C@@H]2CCN(C)CC2(F)F)c(=O)n4C)cn1 [Compound 20, (R)-1-(3,3-difluoro-1-methylpiperidin-4-yl)-8-(6-isopropoxypyridin-3-yl)-3-methyl-1,3-dihydro-2H-imidazo[4,5-c]quinolin-2-one]",> 0.3,< 1,< 1
"CCOc1ccc(-c2ccc3ncc4c(c3c2)n([C@H]2CCN(C)CC2(F)F)c(=O)n4C)cn1 [Compound 31, (S)-1-(3,3-difluoro-1-methylpiperidin-4-yl)-8-(6-ethoxypyridin-3-yl)-3-methyl-1,3-dihydro-2H-imidazo[4,5-c]quinolin-2-one]",> 0.3,< 1,< 1

# Second part, the molecule after the results:
Kp at 4 h [1],efflux ratio (P-glycoprotein),efflux ratio (BCRP),Structure (SMILES)
> 0.3,< 1,< 1,"CN1CC[C@@H](n2c(=O)n(C)c3cnc4ccc(-c5ccc(N6CC(N(C)C)C6)nc5)cc4c32)C(F)(F)C1 [Compound 24, (R)-1-(3,3-difluoro-1-methylpiperidin-4-yl)-8-(6-(3-(dimethylamino)azetidin-1-yl)pyridin-3-yl)-3-methyl-1,3-dihydro-2H-imidazo[4,5-c]quinolin-2-one]"
> 0.3,< 1,< 1,"CN1CCC(n2c(=O)n(C)c3cnc4ccc(-c5ccc(N(C)C)nc5)cc4c32)C(F)(F)C1 (racemic) [Compound 8, (R/S)-1-(3,3-difluoro-1-methylpiperidin-4-yl)-8-(6-(dimethylamino)pyridin-3-yl)-3-methyl-1,3-dihydro-2H-imidazo[4,5-c]quinolin-2-one]"
> 0.3,< 1,< 1,"CN1CCC(n2c(=O)n(C)c3cnc4ccc(-c5ccc(N6CC(N(C)C)C6)nc5)cc4c32)C(F)(F)C1 (racemic) [Compound 11, (R/S)-1-(3,3-difluoro-1-methylpiperidin-4-yl)-8-(6-(3-(dimethylamino)azetidin-1-yl)pyridin-3-yl)-3-methyl-1,3-dihydro-2H-imidazo[4,5-c]quinolin-2-one]"
> 0.3,< 1,< 1,CN1CC[C@H](n2c(=O)n(C)c3cnc4ccc(-c5ccc(N6C[C@H]7[C@@H]6CCN7C)nc5)cc4c32)C(F)(F)C1 [Compound 41]
> 0.3,< 1,< 1,CN1CC[C@@H](n2c(=O)n(C)c3cnc4ccc(-c5ccc(N6C[C@H]7[C@@H]6CCN7C)nc5)cc4c32)C(F)(F)C1 [Compound 27]
> 0.3,< 1,< 1,"CN1CC[C@H](n2c(=O)n(C)c3cnc4ccc(-c5ccc(N6CC(N(C)C)C6)nc5)cc4c32)C(F)(F)C1 [Compound 38, (S)-1-(3,3-difluoro-1-methylpiperidin-4-yl)-8-(6-(3-(dimethylamino)azetidin-1-yl)pyridin-3-yl)-3-methyl-1,3-dihydro-2H-imidazo[4,5-c]quinolin-2-one]"
> 0.3,< 1,< 1,"CN1CCC(n2c(=O)n(C)c3cnc4ccc(-c5ccc(N6CC7C6CCN7C)nc5)cc4c32)C(F)(F)C1 (racemic) [Compound 13, (R/S)-1-(3,3-difluoro-1-methylpiperidin-4-yl)-3-methyl-8-(6-((1R,5R/1S,5S)-(2-methyl-2,6-diazabicyclo[3.2.0]heptan-6-yl)pyridin-3-yl)-1,3-dihydro-2H-imidazo[4,5-c]quinolin-2-one]"
